Measured values published in patent publication US12097173B2, “Volatile organic compound formulations having antimicrobial activity” (priority 2019, dated 2024).

Tests used:
Assay type in all cases: cell-based
Cercospora beticola = assay: plate bioassay of volatile test mixtures, growth inhibition; conditions: for percent inhibition of the growth of Cercospora beticola: Table 4, 30 hr at room temperature, compared to control
Method: (§1) FIG. 1 illustrates a plate bioassay to determine the bioactivity of various esters when combined with a 1:1 mix of the two organic acids as per Table 2. The test organisms were as follows—Cercospora (dark-lower left bottom) then clockwise—Phytophthora, Verticillium, Sclerotinia, Pythium. Fusarium, Trichoderma, Rhizoctonia, and Aspergillus. The streaks were Saccharomyces (far right bottom) then Candida, E coli and Bacillus (left bottom). A=control plate, and B=plate with System 1 after incubation for 30 hr.
(§2) FIG. 9 depicts the biological activities of various test mixtures against a panel of test microbes. A small plug of each organism was placed in the periphery of the PDA plate. In the center well was placed the test solution in the plastic cup holder. A control plate (A) was also set up. After 30 hr the growth of the test organisms was compared to that of the control and the % inhibition was calculated. The (B) plate contained the test mixture. Measurements were made 30 hr after plate set up.
(§3) FIG. 1. Indicates how the assays were done to yield the data sets in Table 1. The various esters were combined with a 1:1 mixture of propanoic acid and isobutryic acid and these were added 7:2 V/V with the ester to be tested.
(§4) Shown in Table 1, are the inhibition and killing effects of propanoic acid, and isobutryic acid together and alone and with various esters. The tests were conducted over the course of 30 hr at 22° C. Measurements were made on appropriate controls and thus the percentage of inhibition calculations could be made on treatments vs the growth on a control organism (non-treated). The bacteria and yeast like organisms were evaluated on the basis of relative growth rates after 30 hr. Those highlighted areas on the table show those compounds (esters) having the most compatibility with propanoic and isobutryic acid 1:1 v/v mixtures with the appropriate esters at a 7:2 ratio—Systems 1 and 2 above. It is from this test that Systems 1 and 2 were discovered. The acids were added at […] individually and combination of the esters with the acids were added at the […] in the plate assay.
as §2, with “Tests were conducted as similarly described for Systems 1 and 2 above (FIG. 9) to ascertain” for “FIG. 9 depicts”

Phytophthora cinnamomi = assay: as above; conditions: for percent inhibition of the growth of Phytophthora cinnamomi: Table 4, 30 hr at room temperature, compared to control
Method: as §1, §2, §3, §4
as §2, with “Tests were conducted as similarly described for Systems 1 and 2 above (FIG. 9) to ascertain” for “FIG. 9 depicts”

Pythium ultimum = assay: as above; conditions: for percent inhibition of the growth of Pythium ultimum: Table 4, 30 hr at room temperature, compared to control
Method: as §1, §2, §3, §4
as §2, with “Tests were conducted as similarly described for Systems 1 and 2 above (FIG. 9) to ascertain” for “FIG. 9 depicts”

Rhizoctonia solani = assay: as above; conditions: for percent inhibition of the growth of Rhizoctonia solani: Table 4, 30 hr at room temperature, compared to control
Method: as §1, §2, §3, §4
as §2, with “Tests were conducted as similarly described for Systems 1 and 2 above (FIG. 9) to ascertain” for “FIG. 9 depicts”

Trichoderma viridae = assay: as above; conditions: for percent inhibition of the growth of Trichoderma viridae: Table 4, 30 hr at room temperature, compared to control
Method: as §1, §2, §3, §4
as §2, with “Tests were conducted as similarly described for Systems 1 and 2 above (FIG. 9) to ascertain” for “FIG. 9 depicts”

Verticillium dahliae = assay: as above; conditions: for percent inhibition of the growth of Verticillium dahliae: Table 4, 30 hr at room temperature, compared to control
Method: as §1, §2, §3, §4
as §2, with “Tests were conducted as similarly described for Systems 1 and 2 above (FIG. 9) to ascertain” for “FIG. 9 depicts”

Sclerotinia sclerotiorum = assay: as above; conditions: for percent inhibition of the growth of Sclerotinia sclerotiorum: Table 4, 30 hr at room temperature, compared to control
Method: as §1, §2, §3
The tests were conducted over the course of 30 hr at 22° C. Measurements were made on appropriate controls and thus the percentage of inhibition calculations could be made on treatments vs the growth on a control organism (non-treated). The bacteria and yeast like organisms were evaluated on the basis of relative growth rates after 30 hr. […] The acids were added at […] individually and combination of the esters with the acids were added at the […] in the plate assay.
as §2, with “Tests were conducted as similarly described for Systems 1 and 2 above (FIG. 9) to ascertain” for “FIG. 9 depicts”

Aspergillus fumigatus = assay: as above; conditions: 30 hr at 22° C.; esters with 1:1 v/v propanoic acid and isobutryic acid (acids to ester 7:2 v/v), 9 ul; acids 7 ul
Method: as §1, §3, §4

Fusarium subglutinans = assay: as above; conditions: 30 hr at 22° C.; esters with 1:1 v/v propanoic acid and isobutryic acid (acids to ester 7:2 v/v), 9 ul; acids 7 ul
Method: as §1, §3, §4

Bacillus subtilus = assay: plate bioassay of volatile test mixtures, relative growth of streak
Method: as §1, §2, §3, §4
as §2, with “Tests were conducted as similarly described for Systems 1 and 2 above (FIG. 9) to ascertain” for “FIG. 9 depicts”

Candida albicans = assay: as above
Method: as §1, §2, §3, §4
as §2, with “Tests were conducted as similarly described for Systems 1 and 2 above (FIG. 9) to ascertain” for “FIG. 9 depicts”

Escherichia coli = assay: as above
Method: as §1, §2, §3, §4
as §2, with “Tests were conducted as similarly described for Systems 1 and 2 above (FIG. 9) to ascertain” for “FIG. 9 depicts”

Saccharomyces cerevicae = assay: as above; conditions: for growth of Saccharomyces cerevisiae: Table 4, 30 hr at room temperature
Method: as §1, §2, §3, §4
as §2, with “Tests were conducted as similarly described for Systems 1 and 2 above (FIG. 9) to ascertain” for “FIG. 9 depicts”

Aspergillus flavus = assay: plate bioassay of volatile test mixtures, growth inhibition; conditions: Table 4; 30 hr at room temperature, compared to control
Method: as §2
as §2, with “Tests were conducted as similarly described for Systems 1 and 2 above (FIG. 9) to ascertain” for “FIG. 9 depicts”
(§5) All testing was done according to the methods in Table 4

Fusarium solani = assay: as above; conditions: Table 4; 30 hr at room temperature, compared to control
Method: as §2
as §2, with “Tests were conducted as similarly described for Systems 1 and 2 above (FIG. 9) to ascertain” for “FIG. 9 depicts”
as §5

[1] = 30 hr at 22° C., esters with 1:1 v/v propanoic acid and isobutryic acid (acids to ester 7:2 v/v), 9 ul, acids 7 ul
[2] = Table 4, 30 hr at room temperature
[3] = relative growth after 30 hr at 22° C., esters with 1:1 v/v propanoic acid and isobutryic acid (7:2 v/v), 9 ul, acids 7 ul

Compound	percent inhibition of the growth of Cercospora beticola (Cercospora beticola) [%]	percent inhibition of the growth of Phytophthora cinnamomi (Phytophthora cinnamomi) [%]	percent inhibition of the growth of Pythium ultimum (Pythium ultimum) [%]	percent inhibition of the growth of Rhizoctonia solani (Rhizoctonia solani) [%]	percent inhibition of the growth of Trichoderma viridae (Trichoderma viridae) [%]	percent inhibition of the growth of Verticillium dahliae (Verticillium dahliae) [%]	percent inhibition of the growth of Sclerotinia sclerotiorum (Sclerotinia sclerotiorum) [%]	growth of Bacillus subtilus (Bacillus subtilus; [2])	growth of Candida albicans (Candida albicans; [2])	growth of Escherichia coli (Escherichia coli; [2])	growth of Saccharomyces cerevisiae (Saccharomyces cerevicae)	percent inhibition of the growth of Aspergillus flavus (Aspergillus flavus) [%]	percent inhibition of the growth of Fusarium solani (Fusarium solani) [%]	other results
CCC(=O)O [Propanoic Acid, reference compound]	66	38	100	81	45	83	0	No	Medium	No	Yes	52	17	inhibition of Cercospora beticola (Cercospora beticola; [1]): 95%; inhibition of Phytophthora cinnamomi (Phytophthora cinnamomi; [1]): 67%; inhibition of Pythium ultimum (Pythium ultimum; [1]): 91%; inhibition of Rhizoctonia solani (Rhizoctonia solani; [1]): 100%; inhibition of Trichoderma viridae (Trichoderma viridae; [1]): 53%; inhibition of Verticillium dahliae (Verticillium dahliae; [1]): 96%; inhibition of Sclerotinia sclerotiorum (Sclerotinia sclerotiorum; [1]): 60%; inhibition of Aspergillus fumigatus (Aspergillus fumigatus): 80%; inhibition of Fusarium subglutinans (Fusarium subglutinans): 83%; growth of Bacillus subtilus (Bacillus subtilus; [3]): No Growth; growth of Candida albicans (Candida albicans; [3]): Growth Observed; growth of Escherichia coli (Escherichia coli; [3]): No Growth; growth of Saccharomyces cerevicae (Saccharomyces cerevicae; [3]): Growth Observed
Isoamyl Hexonates [reference compound]	83	13	28	0	13	0	66	Yes	Yes	Yes	Yes	66	83	–
